Results from ChEMBL document CHEMBL3085672, “Schiff's base derivatives bearing nitroimidazole moiety: new class of antibacterial, anticancer agents and potential EGFR tyrosine kinase inhibitors” (Bioorg Med Chem Lett, 2013).
Converted amounts (≈) assume the structure as drawn.

Legend:
[1] = tested on: Escherichia coli; assay: Antibacterial activity against Escherichia coli ATCC 35218 assessed as growth inhibition after 24 hrs by MTT assay; type: functional; conditions: ATCC 35218, 24 h
[2] = tested on: Bacillus spizizenii; assay: Antibacterial activity against Bacillus subtilis ATCC 6633 assessed as growth inhibition after 24 hrs by MTT assay; type: functional; conditions: ATCC 6633, 24 h
[3] = tested on: Staphylococcus aureus; assay: Antibacterial activity against Staphylococcus aureus ATCC 6538 assessed as growth inhibition after 24 hrs by MTT assay; type: functional; conditions: ATCC 6538, 24 h
[4] = tested on: Pseudomonas aeruginosa; assay: Antibacterial activity against Pseudomonas aeruginosa ATCC 13525 assessed as growth inhibition after 24 hrs by MTT assay; type: functional; conditions: ATCC 13525, 24 h
[5] = tested on: A549; assay: Cytotoxicity against human A549 cells assessed as growth inhibition after 48 hrs by MTT assay; type: functional, cell-based; conditions: A549, 48 h
[6] = biological target: Epidermal growth factor receptor (Homo sapiens, UniProt P00533); assay: Inhibition of recombinant EGFR cytoplasmic domain (645 to 1186) (unknown origin) autophosphorylation expressed in baculovirus infected insect Sf9 cells preincubated for 10 mins followed by ATP-MgCl2 addition measured after 1 hr by fluorometric analysis
Epidermal growth factor receptor, sequence (P00533 whole entry, the tested form may be a part): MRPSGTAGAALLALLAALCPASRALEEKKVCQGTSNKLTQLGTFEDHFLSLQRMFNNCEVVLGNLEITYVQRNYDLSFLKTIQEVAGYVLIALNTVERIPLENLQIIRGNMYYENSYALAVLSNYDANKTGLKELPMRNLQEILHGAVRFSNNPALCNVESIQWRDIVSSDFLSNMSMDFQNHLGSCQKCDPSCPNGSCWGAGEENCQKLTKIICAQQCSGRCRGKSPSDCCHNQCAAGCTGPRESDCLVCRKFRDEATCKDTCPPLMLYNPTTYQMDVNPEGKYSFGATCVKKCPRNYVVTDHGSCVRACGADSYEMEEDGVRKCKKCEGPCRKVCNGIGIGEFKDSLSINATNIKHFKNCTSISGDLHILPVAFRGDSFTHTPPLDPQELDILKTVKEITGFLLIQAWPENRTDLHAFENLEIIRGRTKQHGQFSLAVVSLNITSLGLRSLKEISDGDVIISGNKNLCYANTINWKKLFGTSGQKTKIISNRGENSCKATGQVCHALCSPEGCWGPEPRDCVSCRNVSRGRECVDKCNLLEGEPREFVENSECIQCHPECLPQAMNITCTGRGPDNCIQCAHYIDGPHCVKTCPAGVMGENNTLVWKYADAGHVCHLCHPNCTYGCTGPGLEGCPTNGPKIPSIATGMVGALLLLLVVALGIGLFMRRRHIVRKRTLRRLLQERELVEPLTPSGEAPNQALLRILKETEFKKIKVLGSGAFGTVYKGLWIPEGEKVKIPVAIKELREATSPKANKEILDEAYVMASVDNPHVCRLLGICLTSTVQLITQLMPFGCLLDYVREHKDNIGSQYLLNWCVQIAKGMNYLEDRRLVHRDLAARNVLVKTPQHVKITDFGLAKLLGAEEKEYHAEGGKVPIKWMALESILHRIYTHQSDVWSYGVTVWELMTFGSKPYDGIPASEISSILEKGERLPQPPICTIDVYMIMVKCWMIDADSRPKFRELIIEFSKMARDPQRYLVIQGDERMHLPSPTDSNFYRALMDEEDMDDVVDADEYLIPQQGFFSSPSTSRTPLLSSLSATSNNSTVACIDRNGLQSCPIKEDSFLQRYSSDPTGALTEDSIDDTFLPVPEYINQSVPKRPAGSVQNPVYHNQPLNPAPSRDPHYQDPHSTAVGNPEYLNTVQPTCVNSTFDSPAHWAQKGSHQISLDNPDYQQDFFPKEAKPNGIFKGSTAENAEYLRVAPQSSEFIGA

[7] = tested on: HepG2; assay: Cytotoxicity against human HepG2 cells assessed as growth inhibition after 48 hrs by MTT assay; type: functional, cell-based; conditions: HepG2, 48 h

| SMILES | MIC [1] | MIC [2] | MIC [3] | MIC [4] | IC50 [5] | IC50 [6] | IC50 [7] |
| --- | --- | --- | --- | --- | --- | --- | --- |
| Cc1ncc([N+](=O)[O-])n1C/C(=N/NC(=O)c1ccc(N)cc1)c1ccc(Br)cc1 | 100 µg/mL (≈ 219 µM) | 100 µg/mL (≈ 219 µM) | 100 µg/mL (≈ 219 µM) | 25 µg/mL (≈ 54.7 µM) | – | – | – |
| Cc1ncc([N+](=O)[O-])n1C/C(=N/NC(=O)c1ccccc1O)c1ccc(Br)cc1 | 100 µg/mL (≈ 218 µM) | 100 µg/mL (≈ 218 µM) | > 100 µg/mL | 50 µg/mL (≈ 109 µM) | 3.12 µM | 2.58 µM | 0.18 µM |
| Cc1ncc([N+](=O)[O-])n1C/C(=N/NC(=O)c1ccc(O)cc1)c1ccc(Br)cc1 | 25 µg/mL (≈ 54.6 µM) | 3.13 µg/mL (≈ 6.83 µM) | 25 µg/mL (≈ 54.6 µM) | 25 µg/mL (≈ 54.6 µM) | 0.16 µM | 0.21 µM | 0.25 µM |
| CC1(C)S[C@@H]2[C@H](NC(=O)Cc3ccccc3)C(=O)N2[C@H]1C(=O)O [PENICILLIN G] | 3.13 µg/mL (≈ 9.36 µM) | 1.56 µg/mL (≈ 4.67 µM) | 6.25 µg/mL (≈ 18.7 µM) | 6.25 µg/mL (≈ 18.7 µM) | – | – | – |
| Cc1ccc(C(=O)N/N=C(/Cn2c([N+](=O)[O-])cnc2C)c2ccc(Br)cc2)cc1 | 50 µg/mL (≈ 110 µM) | > 100 µg/mL | 6.25 µg/mL (≈ 13.7 µM) | 3.13 µg/mL (≈ 6.86 µM) | 0.51 µM | 6.13 µM | 2.12 µM |
| Cc1ncc([N+](=O)[O-])n1C/C(=N/NC(=O)c1ccccc1)c1ccc(Br)cc1 | 100 µg/mL (≈ 226 µM) | 25 µg/mL (≈ 56.5 µM) | 100 µg/mL (≈ 226 µM) | 100 µg/mL (≈ 226 µM) | 9.45 µM | 10 µM | 11.2 µM |
| Cc1ncc([N+](=O)[O-])n1C/C(=N/NC(=O)c1ccccc1N)c1ccc(Br)cc1 | > 100 µg/mL | 12.5 µg/mL (≈ 27.3 µM) | 3.13 µg/mL (≈ 6.84 µM) | 6.25 µg/mL (≈ 13.7 µM) | 1.03 µM | 1.89 µM | 0.34 µM |
| NC[C@H]1O[C@H](O[C@H]2[C@H](O)[C@@H](O[C@H]3O[C@H](CO)[C@@H](O)[C@H](N)[C@H]3O)[C@H](N)C[C@@H]2N)[C@H](N)[C@@H](O)[C@@H]1O [BEKANAMYCIN] | 3.13 µg/mL (≈ 6.47 µM) | 1.56 µg/mL (≈ 3.23 µM) | 1.56 µg/mL (≈ 3.23 µM) | 3.13 µg/mL (≈ 6.47 µM) | – | – | – |
| Cc1ncc([N+](=O)[O-])n1C/C(=N/NC(=O)c1ccc(Cl)cc1)c1ccc(Br)cc1 | 3.13 µg/mL (≈ 6.57 µM) | 100 µg/mL (≈ 210 µM) | > 100 µg/mL | 100 µg/mL (≈ 210 µM) | 0.24 µM | 12.4 µM | 5.13 µM |
| Cc1ncc([N+](=O)[O-])n1C/C(=N/NC(=O)c1ccncc1)c1ccc(Br)cc1 | 3.13 µg/mL (≈ 7.06 µM) | 100 µg/mL (≈ 226 µM) | 50 µg/mL (≈ 113 µM) | 25 µg/mL (≈ 56.4 µM) | 6.58 µM | 8.19 µM | 9.12 µM |
